Patent US10500219B2, “Compositions and methods for tissue regeneration” (ORBIS HEALTH SOLUTIONS LLC, priority 2012, dated 2019)

Tested on: chronic Foot Rot
Assay: Chronic Foot Rot with proliferative mass in a heifer (Example 25)
Format: in vivo, American Shorthorn heifer
Details: injectable antibiotic for 7 days, before cream treatment
From the text: A two-year old female American Shorthorn heifer was presented with lameness and a proliferative mass (3″ in diameter)with associated swelling and large dense scab between the digits of the left hind foot diagnosed as chronic Foot Rot. […] After 4 months lameness reoccurred and the area again became inflamed. […] A surgical consultation determined that the area needed to be surgically excised under general anesthesia. Due to late term pregnancy, surgery was postponed until after delivery. While waiting for surgery, the cream of Example 18 was applied once daily by massaging the cream into the area between the digits. […] No surgery or further antibiotic therapy was anticipated. FIG. 11A depicts the infection in the left hind foot before treatment and FIG. 11B depicts the infected area after 3 weeks of treatment with the cream of Example 18.

SMILES: CS(=O)(=O)c1ccc([C@@H](O)[C@@H](CF)NC(=O)C(Cl)Cl)cc1 [Nuflor]
- lameness: reduced lameness
- reduction of mass size: approximately ⅓
